From patent US20240391912A1, “MORPHIC FORMS OF CFT7455 AND METHODS OF MANUFACTURE THEREOF” (C4 THERAPEUTICS, INC., priority 2022, published 2024)
Converted amounts (≈) assume the structure as drawn. “Also recorded” adds a separate entry of the source.

Experiments:
Type in all cases: physicochemical
[1] = Water activity study of Compound 1 Form I at 25° C. for 1 week; conditions: for change of morphic form in solvents with high water content (water activity study): acetone/water, DMSO/water, pure water, 25° C.
Procedure: Water activity experiments were conducted at 25° C. in 7 different water activities solvent mixtures to determine critical water activity of Compound 1 Form I. About 20 mg of Compound 1 Form I was added to 1.0 mL of acetone/water or DMSO/water mixtures and stirred at 400 rpm and 25° C. for 1 week.

[2] = Scale-up experiment (200 mg) and characterization of new polymorphs of Compound 1
Procedure: Scale-up 1: About 200 mg of Compound 1 Form I was dissolved in 10 mL THF/Water (95:5, v:v) at 40° C. […] Compound 1 Form IV was obtained. It was subjected to characterization.
Scale-up 2: About 200 mg of Compound 1 Form I was dissolved in 10 mL THF/Water (95:5, v:v) at 40° C. […] It was subjected to characterization.

[3] = Equilibration of Compound 1 Form I with solvents at 50° C. for 1 week (XRPD)
Procedure: About 50 mg of Compound 1 Form I (free form) was equilibrated in 1 mL of solvent at 50° C. for 1 week with a stirring plate. The obtained suspension was filtered and the solid part (wet cake) was investigated by XRPD.

[4] = Approximate solubility of Compound 1 Form I at 25° C. and 50° C. (visual observation); conditions: thermodynamic from solid
Procedure: Max. volume of each solvent added was 1 mL. Approximate solubility was determined by visual observation.

[5] = Equilibration of Compound 1 Form I with solvents at 25° C. for 2 weeks (XRPD)
Procedure: About 30 mg of Compound 1 Form I (free form) was equilibrated in 1 mL of solvent at 25° C. for 2 weeks with a stirring plate. The obtained suspension was filtered. The solid part (wet cake) was investigated b XRPD.

[6] = Behavior of Compound 1 Form I under heating and cooling (DSC cycles); conditions: for Melting onset: reheat to 300° C. at 10° C./min
Procedure: Polymorphic behavior of Compound 1 Form I (free form) was investigated by two different heating-cooling cycles of DSC. The results were summarized in Table 6. • HCH1: 30° C. to 300° C. at 10° C./min; 300° C. to −20° C. at 20° C./min; reheat to 300° C. at 10° C./min. • HCH2: 30° C. to 300° C. at 10° C./min; 300° C. to −20° C. at 2° C./min; reheat to 300° C. at 10° C./min.

[7] = Precipitation of Compound 1 by addition of anti-solvent to DMSO solution (XRPD, residual solvent); conditions: for residual DMSO: 1H-NMR after vacuum drying at 80° C. for 2 hours; for Notes (appearance) / XRPD: solvent DMSO
Procedure: About 20 mg of Compound 1 Form I (free form) was dissolved in DMSO and anti-solvent was added into the obtained solution slowly. Precipitates were collected by filtration. The solid part (wet cake) was investigated by XRPD. Residual solvent of these solids was also analyzed by ^1H-NMR after vacuum dried at 80° C. for 2 hours.

[8] = Crystallization of Compound 1 at room temperature by slow evaporation (XRPD)
Procedure: About 20 mg of Compound 1 Form I (free form) was dissolved and filtered by 0.45 μm nylon filter. Obtained solutions were evaporated slowly at ambient condition. Solid residues were examined for their polymorphic form.

[9] = solids after equilibration in EtOH
[10] = solids after equilibration in EtOH, 25° C., 2 weeks
[11] = anti-solvent Water, about 2 mg of seeds added

O=C1CC[C@H](N2C(=O)c3cccc4c(Cc5ccc(CN6CCOCC6)cc5)ccc2c34)C(=O)N1 [Compound 1 Form I, (S)-3-(6-(4-(morpholinomethyl)benzyl)-2-oxobenzo[cd]indol-1(2H)-yl)piperidine-2,6-dione]
XRPD ([1]; Acetone, a.w. 0, 25° C.): Form I
XRPD ([1]; Acetone/Water (91:9, v:v), a.w. 1, 25° C.): Form I
XRPD ([1]; Acetone/Water (94:6, v:v), a.w. 0.5, 25° C.): Form I
XRPD ([1]; Acetone/Water (97:3, v:v), a.w. 0.3, 25° C.): Form I
XRPD ([1]; Acetone/Water (99:1, v:v), a.w. 0.1, 25° C.): Form I
XRPD ([1]; DMSO/Water (64:36, v:v), a.w. 0.5, 25° C.): Form I
XRPD ([1]; Water, a.w. 1, 25° C.): Form I
change of morphic form in solvents with high water content (water activity study) [1]: no significant changes to the morphic form
change of morphic form in solvents with high water content (water activity study) ([1]; listed as Form I): only Form I was obtained
Stoichiometry: DCM ([2]; 1H-NMR, listed as Form I): 0.6% DCM
DSC enthalpy ([2]; DSC, 10° C./min): enthalpy 114 J/g
DSC melting onset ([2]; DSC, 10° C./min): 233.9° C.;
Thermogravimetry weight loss ([2]; TGA, 10° C./min, at 225° C.): About 2.0%
XRPD ([3]; equilibration in ACN): Form I
XRPD ([3]; equilibration in Acetone): Form I
XRPD ([3]; equilibration in DCM): Form I
XRPD ([3]; equilibration in DCM:MeOH (v:v = 1:1)): Form I
XRPD ([3]; equilibration in DCM:THF(v:v = 8:2)): Form I
XRPD ([3]; equilibration in EA): Form I
XRPD ([3]; equilibration in EtOH): Form I
XRPD ([3]; equilibration in MeOH): Form I
XRPD ([3]; equilibration in THF, wet cake): Form I
XRPD ([3]; equilibration in THF:Water (v:v = 95:5)): Form I
Melting onset [3, 9]: Melting onset: 239.5° C.,
enthalpy [3, 9]: enthalpy: 109 J/g
residual DCM [3, 9]: 0.4% residual DCM
solubility ([4]; DCM, 25 °C, organic solvent or mixture): 8000 to 13000 µg/mL (≈ 17 to 27.7 mM)
solubility ([4]; DCM, 50 °C, organic solvent or mixture): 16000 to 25000 µg/mL (≈ 34.1 to 53.2 mM)
solubility ([4]; DCM:MeOH (v:v = 1:1), 25 °C, organic solvent or mixture, DCM:MeOH (v:v = 1:1), 25° C.): 17000 to 20000 µg/mL (≈ 36.2 to 42.6 mM)
solubility ([4]; DCM:MeOH (v:v = 1:1), 50 °C, organic solvent or mixture, DCM:MeOH (v:v = 1:1), 50° C.): 29000 to 33000 µg/mL (≈ 61.8 to 70.3 mM)
solubility ([4]; DMSO, 25 °C, organic solvent or mixture): 83000 to 125000 µg/mL (≈ 177 to 266 mM)
solubility ([4]; DMSO, 25 °C, organic solvent or mixture, in DMSO, solubilized at about 25° C.): ≥ 50000 µg/mL
solubility ([4]; DMSO, 50 °C, organic solvent or mixture): 167000 to 250000 µg/mL (≈ 356 to 532 mM)
solubility ([4]; Ethanol:Water (8:2, v:v), 25 °C, organic solvent or mixture, Ethanol:Water (8:2, v:v), 25° C.): < 5000 µg/mL
solubility ([4]; Ethanol:Water (8:2, v:v), 50 °C, organic solvent or mixture, Ethanol:Water (8:2, v:v), 50° C.): < 10000 µg/mL
solubility ([4]; MTBE, 25 °C, organic solvent or mixture): < 5000 µg/mL
solubility ([4]; MTBE, 50 °C, organic solvent or mixture): < 10000 µg/mL
solubility ([4]; THF, 25 °C, organic solvent or mixture): 8000 to 13000 µg/mL (≈ 17 to 27.7 mM)
solubility ([4]; THF, 50 °C, organic solvent or mixture): 16000 to 25000 µg/mL (≈ 34.1 to 53.2 mM)
solubility ([4]; THF:Water (v:v = 95:5), 25 °C, organic solvent or mixture, THF:Water (v:v = 95:5), 25° C.): 17000 to 20000 µg/mL (≈ 36.2 to 42.6 mM)
solubility ([4]; THF:Water (v:v = 95:5), 50 °C, organic solvent or mixture, THF:Water (v:v = 95:5), 50° C.): 40000 to 50000 µg/mL (≈ 85.2 to 106 mM)
solubility ([4]; acetone, 25 °C, organic solvent or mixture): < 5000 µg/mL
solubility ([4]; acetone, 50 °C, organic solvent or mixture): < 10000 µg/mL
solubility ([4]; acetonitrile, 25 °C, organic solvent or mixture): < 5000 µg/mL
solubility ([4]; acetonitrile, 50 °C, organic solvent or mixture): < 10000 µg/mL
solubility ([4]; ethanol, 25 °C, organic solvent or mixture): < 5000 µg/mL
solubility ([4]; ethanol, 50 °C, organic solvent or mixture): < 10000 µg/mL
solubility ([4]; ethyl acetate, 25 °C, organic solvent or mixture): < 5000 µg/mL
solubility ([4]; ethyl acetate, 50 °C, organic solvent or mixture): < 10000 µg/mL
solubility ([4]; heptane, 25 °C, organic solvent or mixture): < 5000 µg/mL
solubility ([4]; heptane, 50 °C, organic solvent or mixture): < 10000 µg/mL
solubility ([4]; methanol, 25 °C, organic solvent or mixture, approximate, visual observation): < 5000 µg/mL
solubility ([4]; methanol, 50 °C, organic solvent or mixture, approximate, visual observation): < 10000 µg/mL
solubility ([4]; water, 25 °C): < 5000 µg/mL
solubility ([4]; water, 50 °C): < 10000 µg/mL
stability of the form in water (equilibration experiments) ([5]; alone in water / pure water): very stable; also recorded: stable
XRPD ([5]; equilibration in ACN, 25° C., 2 weeks): Form I
XRPD ([5]; equilibration in Acetone, 25° C., 2 weeks): Form I
XRPD ([5]; equilibration in DCM, 25° C., 2 weeks): Form I
XRPD ([5]; equilibration in DCM:MeOH (v:v = 1:1), 25° C., 2 weeks): Form I
XRPD ([5]; equilibration in DCM:THF(v:v = 8:2), 25° C., 2 weeks): Form I
XRPD ([5]; equilibration in EA, 25° C., 2 weeks): Form I
XRPD ([5]; equilibration in EtOH, 25° C., 2 weeks): Form I
XRPD ([5]; equilibration in MeOH, 25° C., 2 weeks): Form I
XRPD ([5]; equilibration in THF, 25° C., 2 weeks, wet cake): Form I
XRPD ([5]; equilibration in THF:Water (v:v = 95:5), 25° C., 2 weeks): Form I
Melting onset [5, 10]: Melting onset: 239.0° C.,
enthalpy [5, 10]: enthalpy: 107 J/g
residual DCM [5, 10]: 0.4% residual DCM
Melting onset ([6]; HCH1: 30° C. to 300° C. at 10° C./min, 300° C. to −20° C. at 20° C./min): Melting onset 231.4° ° C.
enthalpy ([6]; HCH1: cooling 300° C. to −20° C. at 20° C./min): C.; enthalpy 115 J/g
Melting onset ([6]; HCH2: 30° C. to 300° C. at 10° C./min, 300° C. to −20° C. at 2° C./min): Melting onset 231.3° ° C.
enthalpy ([6]; HCH2: cooling 300° C. to −20° C. at 2° C./min): C.; enthalpy 108 J/g
residual DMSO ([7]; DMSO/EtOH precipitate): 0.05 equiv. residual
residual DMSO ([7]; DMSO/MeOH precipitate): 0.14 equiv. residual
residual DMSO ([7]; DMSO/Water precipitate): 0.90 equiv. residual
Notes (appearance) ([7]; anti-solvent Acetone, held at 5° C. for 2 days, no solid obtained): Clear solution^a
Notes (appearance) ([7]; anti-solvent EtOAc): Clear solution
Notes (appearance) ([7]; anti-solvent EtOH): Suspension
XRPD ([7]; anti-solvent EtOH): −
Notes (appearance) ([7]; anti-solvent MeOH): Suspension
XRPD ([7]; anti-solvent MeOH, wet cake): −
Notes (appearance) ([7]; anti-solvent Water): Suspension
XRPD ([7]; anti-solvent Water): −
Notes (appearance) [7, 11]: Suspension^b
XRPD [7, 11]: −
Notes (form obtained) ([8]; slow evaporation from DCM): Form I
XRPD (form change) ([8]; slow evaporation from DCM at ambient condition): −
Notes (form obtained) ([8]; slow evaporation from MeOH/DCM(v:v = 1:1)): Form II
XRPD (form change) ([8]; slow evaporation from MeOH/DCM(v:v = 1:1) at ambient condition): + (Form changed detected.)
Notes (form obtained) ([8]; slow evaporation from THF): Form III
XRPD (form change) ([8]; slow evaporation from THF at ambient condition): + (Form changed detected.)
Notes (form obtained) ([8]; slow evaporation from THF:Water (v:v = 95:5)): Form III
XRPD (form change) ([8]; slow evaporation from THF:Water (v:v = 95:5) at ambient condition): + (Form changed detected.)
